# Legend:
# human EAAT2 = molecular target: T1, human EAAT2 (Homo sapiens, UniProt P43004); experiment: [14C]glutamate uptake inhibition in human EAAT2 constitutively expressed in MDCK cells; assay type: cell-based; conditions: 1 μM L-[14C]glutamate, 12 minutes incubation
# T1 construct: expressed in transfected cells; host or cells: MDCK (Madin-Darby Canine Kidney) cells
# Method: (§1) According to the known method (Shimamoto, K. et al., Mol. Pharmacol. 53, 195-201, 1998; Bioorg. Med. Chem. Lett. 10, 2407-2410, 2000), the inhibitory effect against [^14C]glutamate uptake was measured in human EAAT2 or EAAT3 constitutively expressed in MDCK (Madin-Darby Canine Kidney) cells. Glutamate uptake activity was determined as follows: 1 μM L-[^14C]glutamate and a sample at a given concentration were added and incubated for 12 minutes, followed by solubilizing the cells to measure incorporated radioactivity with a liquid scintillator. The amount of uptake was expressed as a percentage, assuming that uptake in the absence of a test compound (buffer alone) was set to 100% and uptake in a sodium-free solution was set to 0%.
# human EAAT3 = molecular target: T2, human EAAT3 (Homo sapiens, UniProt P43005); experiment: [14C]glutamate uptake inhibition in human EAAT3 constitutively expressed in MDCK cells; assay type: cell-based; conditions: 1 μM L-[14C]glutamate, 12 minutes incubation
# T2 construct: expressed in transfected cells; host or cells: MDCK (Madin-Darby Canine Kidney) cells
# T2 sequence (P43005 1-524): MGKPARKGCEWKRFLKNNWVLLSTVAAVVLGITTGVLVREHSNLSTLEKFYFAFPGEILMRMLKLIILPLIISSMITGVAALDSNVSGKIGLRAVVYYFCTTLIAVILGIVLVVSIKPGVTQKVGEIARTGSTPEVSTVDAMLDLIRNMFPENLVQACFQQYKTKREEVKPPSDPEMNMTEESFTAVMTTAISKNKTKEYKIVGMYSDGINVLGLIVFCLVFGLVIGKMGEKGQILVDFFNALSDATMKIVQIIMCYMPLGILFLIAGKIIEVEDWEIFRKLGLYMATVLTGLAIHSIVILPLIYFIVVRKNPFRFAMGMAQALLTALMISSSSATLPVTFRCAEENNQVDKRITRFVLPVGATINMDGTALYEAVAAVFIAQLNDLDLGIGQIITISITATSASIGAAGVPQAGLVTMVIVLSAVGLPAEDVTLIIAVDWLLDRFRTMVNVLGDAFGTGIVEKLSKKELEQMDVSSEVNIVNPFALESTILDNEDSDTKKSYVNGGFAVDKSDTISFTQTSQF
# Method: as §1
# glutamate transporters = conditions: Shimamoto et al., Mol. Pharmacol. 65, 2004; cited from earlier work
# T1 sequence (P43004 whole entry): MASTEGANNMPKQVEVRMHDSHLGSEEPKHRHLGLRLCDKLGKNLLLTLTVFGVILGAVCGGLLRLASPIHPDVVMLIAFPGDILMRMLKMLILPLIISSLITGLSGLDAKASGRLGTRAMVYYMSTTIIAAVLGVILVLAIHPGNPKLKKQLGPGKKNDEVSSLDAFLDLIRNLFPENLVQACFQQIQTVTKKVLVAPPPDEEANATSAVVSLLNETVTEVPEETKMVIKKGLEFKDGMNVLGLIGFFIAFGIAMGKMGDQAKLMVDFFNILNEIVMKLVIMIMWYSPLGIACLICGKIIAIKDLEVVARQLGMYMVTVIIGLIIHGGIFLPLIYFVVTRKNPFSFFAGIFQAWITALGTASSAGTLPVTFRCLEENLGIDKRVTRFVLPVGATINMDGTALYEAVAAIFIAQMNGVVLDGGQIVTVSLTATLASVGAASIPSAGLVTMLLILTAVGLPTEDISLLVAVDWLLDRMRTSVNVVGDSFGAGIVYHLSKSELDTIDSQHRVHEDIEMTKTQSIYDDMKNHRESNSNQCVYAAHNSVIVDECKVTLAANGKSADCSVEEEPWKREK
IC50 (human EAAT2) [nM],IC50 (human EAAT3) [nM],SMILES,IC50 value for uptake inhibitory activity (glutamate transporters)
23,805,"NCCOCCOCCOCCOCC(=O)NCCCCCC(=O)NCCCCCC(=O)Nc1cc(CO[C@H](C(=O)O)[C@H](N)C(=O)O)cc(NC(=O)c2ccc(C(F)(F)F)cc2)c1 [Compound 10, (2S,3S)-3-(3-(6-(6-(2-(2-(2-(2-(2-aminoethoxy)ethoxy)ethoxy)ethoxy)acetamido)hexanamido)hexanamido)-5-(4-(trifluoromethyl)benzamido)benzyloxy)aspartic acid]",–
1.3,0.46,"N[C@H](C(=O)O)[C@H](OCc1cc(NC(=O)c2ccc(C(F)(F)F)cc2)cc(NC(=O)c2ccc(C(F)(F)F)cc2)c1)C(=O)O [Compound 11, (2S,3S)-3-{3,5-bis[4-(trifluoromethyl)benzamido]benzyloxy}aspartic acid]",–
1300,1300,"N[C@H](C(=O)O)[C@H](OCc1ccccc1)C(=O)O [L-TBOA, L-threo-β-benzyloxyaspartic acid, reference compound]",–

# More lines, now with the values behind:
SMILES,IC50 (human EAAT2) [nM],IC50 (human EAAT3) [nM],IC50 value for uptake inhibitory activity (glutamate transporters)
"CCC(=O)Nc1cc(CO[C@H](C(=O)O)[C@H](N)C(=O)O)cc(NC(=O)c2ccc(C(F)(F)F)cc2)c1 [Compound 14, (2S,3S)-3-(3-propionylamido-5-[4-(trifluoromethyl)benzamido]benzyloxy)aspartic acid]",4.7,112,–
N[C@H](C(=O)O)[C@H](OCc1cccc(NC(=O)c2ccc(C(F)(F)F)cc2)c1)C(=O)O [TFB-TBOA],–,–,in the order of nM
